Assays:
[1] = Isothermal titration calorimetry (ITC), Cl^− recognition; assay type: binding; settings: for K1 (association constant) / ΔG1: X^− = Cl^−, ITC, DMSO, 298 K
Procedure: (§1) Isothermal titration calorimetry (ITC) studies were conducted on a MICROCAL VP-ITC ultra-sensitive isothermal titration microcalorimeter. The VP-ITC unit, with a precise temperature control set at 25.0±0.1° C., directly measured heat evolved or absorbed in solution as a result of […] of reactant. For control, a reference cell was filled with dimethyl sulfoxide (DMSO). Titrations were run at 25° C.
(§2) Before the experiment, all the samples were degassed at 25° C. for 10 minutes us the THERMOVAC (a vacuum thermostating system). Each of 40 injections of 6 μL of a halide solution was delivered into a solution (1 mM) of reagent LS over 12 seconds by a syringe spinning at 270 rpm, with a 240 second equilibration time between injections. The instrument was controlled by MICROCAL OBSERVER software comprising a 16-bit A/D converter board for data acquisition, and a second interface board for calorimetric control. Heats of dilution were taken into account using data from control experiments, in which DMSO was injected into reagent LS in DMSO solution.
(§3) Using these characteristic ITC patterns, one could determine whether a given test solution contains F^− only or, alternatively, whether the test solution contains is a mixture of F^− with another halide anion.
In addition to the above species, the same experimental procedure was followed with control reagent CR.

[2] = Visual color change and UV/Visible spectroscopy during F^− titration; settings: for visible color change during F^− titration: solvents with up to 15% H2O, orange ≦5 equiv, pink >5 equiv F^−
Text: (§4) Unless otherwise indicated, the following procedure was used for all examples involving titration experiments. Generally, titrant solutions comprising the fluoride receptor reagents (e.g., reagents N1, SR, and LR) were maintained at a concentration of 10 μm. Titrand solutions containing fluoride anion were 30 times more concentrated (e.g., 300 μm) to minimize dilution effects during titration. Unless otherwise indicated, the solvent for all solutions was dimethyl sulfoxide (DMSO).
(§5) Several experiments were conducted to observe the visible color changes that occur when NDI-based receptor reagents N1, SR, and LR were titrated with solutions containing F^− ions. Titrations were carried out using F^− in a number of solvents, including aqueous dimethyl sulfoxide (DMSO), dimethylformamide (DMF), dimethylacetamide (DMAc), acetonitrile, acetone, and tetrahydrofuran, with each solution containing up to 15% of H2O. Otherwise, the titrations followed the standard titration procedure outlined above.
(§6) As indicated above, UV/Visible light (UV/Vis) spectra were recorded on a PerkinElmer Lambda-25 UV/Vis spectrophotometer. For each experiment, receptor N1, SR, and CR concentrations were maintained at 10 μM. Titration of the F^− ion was conducted using the standard titration procedure outlined above.

[3] = Cyclic voltammetry; assay type: physicochemical; settings: 1 mM in 0.1 M TBAPF6/DMF, Ag/AgCl reference, 100 mV/s, room temperature
Procedure: Cyclic voltammetry (CV) was conducted on a PRINCETON APPLIED RESEARCH (PAR) VERSASTAT-3-200 potentiostat/galvanostat instrument using a standard electrochemical cell, consisting of a Pt-disk working electrode, Pt-wire counter electrode, and Ag/AgCl (3 N aq. NaCl) reference electrode. CV was recorded at 1 mM of reagent N1 in 0.1 M TBAPF6/DMF supporting electrolyte solution at room temperature at 100 mV/s scan rate (FIG. 11).

[4] = Fluorescence spectroscopy during F^− titration; settings: for selectivity for F^− over other halide ions: color and emission spectra, Cl^−, Br^−, I^− up to 30 molar equivalents, DMSO
Text: as §4
Fluorescence spectroscopy was introduced to determine the sensitivity of NDI-based F^− ion sensors at very low concentrations. Fluorescence spectra were collected on a HORIBA JOBIN YVON FLUOROMAX-4 spectrofluorometer.

[5] = Visual color change and UV/Visible spectroscopy during titration with other anions
Text: as §4, §5, §6
Similarly, FIG. 5, panel (c) is a representation of the data obtained when receptor reagent N1 was titrated with various other […], including Cl^−, Br^−, I^−, NO3^−, acetate anion (AcO^−), and H2PO4^−.

[6] = Isothermal titration calorimetry (ITC), F^− recognition; assay type: binding; settings: for K1 (association constant) / ΔG1 / K2 (association constant, second binding process) / ΔG2: X^− = F^−, DMSO, 298 K
Procedure: as §1, §2
From these experiments, it has been confirmed that a 1:[…] (reagent LS:F^− anion) type of stoichiometry occurs during F^− titration. Initially, π-anion-π interaction takes place, at concentrations up to one molar equivalent of F^− ion. At concentrations greater than one equivalent of F^−, the NH proton becomes directly involved in a second binding process through hydrogen bonding, a conclusion which is supported by the ^1H NMR experiments described above. The association constants for these two processes have been determined as follows: K1=4.11 10^4 M^−1 and K2=2.69 10^4 M^−1. […]

[7] = Fluoride anion sensing in toothpastes (UV/Vis); settings: 10 μM receptor, wet DMSO
Procedure: For the detection of F^− ion in toothpastes, small samples (1 gram) of each of two toothpastes (COLGATE anticavity fluoride toothpaste and ORAJEL toddler fluoride-free toothpaste) were extracted separately in 2 mL of aqueous DMSO. The COLGATE toothpaste contained 0.24% (w/v) NaF. Each resulting suspension was filtered to obtain colorless clear solution, which were separately added to 10 μM SR solutions.
The black trace represents SR without toothpaste; the light trace, SR with anticavity adult toothpaste containing 0.24% NaF; and the medium trace, SR with F^− free toddler toothpaste.

[8] = Isothermal titration calorimetry (ITC), I^− recognition; assay type: binding; settings: solution with DMSO
Procedure: as §1, §2, §3

[9] = Isothermal titration calorimetry (ITC), Br^− recognition; assay type: binding; settings: solution with DMSO
Procedure: as §1, §2, §3

K2 (association constant, second binding process) [6] [M⁻¹]	SMILES	K1 (association constant) [1] [M⁻¹]	ΔG1 [1] [kcal/M]	visible color change during F^− titration [2]	K1 (association constant) [6] [M⁻¹]	ΔG1 [6] [kcal/M]	selectivity for F^− over other halide ions [4]	ΔG2 [6] [kcal/M]	also measured
	O=C1c2ccc3c4c(ccc(c24)C(=O)N1c1ccncc1)C(=O)N(c1ccncc1)C3=O [N1]	53	-2.35	immediately changed color in a distinct two-step pattern	8470	-5.36			E1 ½, one-electron reduction to radical anion [3]: −342 mV; E2 ½, reduction to dianion [3]: −804 mV; increase of the 465 nm emission peak ([4]; receptor 10 μM in DMSO, 30 equiv. of F^−): 5.5 fold; optical response to other anions ([5]; Cl^−, Br^−, I^−, NO3^−, AcO^−, H2PO4^−, UV/Vis): did not show any optical response
	O=C(Nc1cccc(NC(=O)c2cccc(C(=O)Nc3cccc(NC(=O)c4ccncc4)c3)c2)c1)c1ccncc1 [CR, reference compound]	100	-2.71		259	-3.28			UV/Vis spectroscopic / colorimetric response to F^− titration ([2]; receptor 10 μM, DMSO): virtually no colorimetric response; visible color change in response to anions ([5]; any anion): did not change color in response to any anion
442000	O=C(Nc1cccc(N2C(=O)c3ccc4c5c(ccc(c35)C2=O)C(=O)N(c2ccncc2)C4=O)c1)c1cccc(C(=O)Nc2cccc(N3C(=O)c4ccc5c6c(ccc(c46)C3=O)C(=O)N(c3ccncc3)C5=O)c2)n1 [SR]	1730	-4.41	immediately changed color in a distinct two-step pattern	9.03e+08	-12.20	excellent selectivity	-7.70	color change with F^− in the presence of Cl^− ([2]; titrated with F^− in the presence of 30 molar equivalents of Cl^−): showed the characteristic two-step color change associated with F^− even in the presence of Cl^−; response to F^− containing toothpaste solution (COLGATE, 0.24% NaF) [7]: turned light orange; response to F^−-free ORAJEL toothpaste [7]: did not change the spectrum of the receptor; amplification of a new peak at 465 nm ([4]; receptor 1 nM in DMSO, F^− 30 nM, 381 nm excitation): 20 fold; optical response to Cl^− alone ([5]; Cl^−, 30 molar equivalents): no optical response
26900	O=C(Nc1cccc(NC(=O)c2cccc(C(=O)Nc3cccc(NC(=O)c4ccc(N5C(=O)c6ccc7c8c(ccc(c68)C5=O)C(=O)N(c5ccncc5)C7=O)cc4)c3)c2)c1)c1ccc(N2C(=O)c3ccc4c5c(ccc(c35)C2=O)C(=O)N(c2ccncc2)C4=O)cc1 [LR]	319	-3.42	immediately changed color in a distinct two-step pattern	41100	-6.29	excellent selectivity	-6.04	association constant Ka ([1]; Cl^−, solution with DMSO): 319 M⁻¹; association constant Ka [8]: 105 M⁻¹; association constant Ka [9]: 145 M⁻¹; F^− binding in presence of excess Cl^− ion ([6]; excess of Cl^−): binds F^− selectively
